How the values were obtained:
[1] = target: T1, Metabotropic glutamate receptor 5 (Homo sapiens, UniProt P41594); assay: Antagonist activity at mGluR5 by FLIPR
[2] = target: T1, Metabotropic glutamate receptor 5; assay: Displacement of [3H]MPEP from mGlu5 receptor

T1 sequence (P41594 whole entry): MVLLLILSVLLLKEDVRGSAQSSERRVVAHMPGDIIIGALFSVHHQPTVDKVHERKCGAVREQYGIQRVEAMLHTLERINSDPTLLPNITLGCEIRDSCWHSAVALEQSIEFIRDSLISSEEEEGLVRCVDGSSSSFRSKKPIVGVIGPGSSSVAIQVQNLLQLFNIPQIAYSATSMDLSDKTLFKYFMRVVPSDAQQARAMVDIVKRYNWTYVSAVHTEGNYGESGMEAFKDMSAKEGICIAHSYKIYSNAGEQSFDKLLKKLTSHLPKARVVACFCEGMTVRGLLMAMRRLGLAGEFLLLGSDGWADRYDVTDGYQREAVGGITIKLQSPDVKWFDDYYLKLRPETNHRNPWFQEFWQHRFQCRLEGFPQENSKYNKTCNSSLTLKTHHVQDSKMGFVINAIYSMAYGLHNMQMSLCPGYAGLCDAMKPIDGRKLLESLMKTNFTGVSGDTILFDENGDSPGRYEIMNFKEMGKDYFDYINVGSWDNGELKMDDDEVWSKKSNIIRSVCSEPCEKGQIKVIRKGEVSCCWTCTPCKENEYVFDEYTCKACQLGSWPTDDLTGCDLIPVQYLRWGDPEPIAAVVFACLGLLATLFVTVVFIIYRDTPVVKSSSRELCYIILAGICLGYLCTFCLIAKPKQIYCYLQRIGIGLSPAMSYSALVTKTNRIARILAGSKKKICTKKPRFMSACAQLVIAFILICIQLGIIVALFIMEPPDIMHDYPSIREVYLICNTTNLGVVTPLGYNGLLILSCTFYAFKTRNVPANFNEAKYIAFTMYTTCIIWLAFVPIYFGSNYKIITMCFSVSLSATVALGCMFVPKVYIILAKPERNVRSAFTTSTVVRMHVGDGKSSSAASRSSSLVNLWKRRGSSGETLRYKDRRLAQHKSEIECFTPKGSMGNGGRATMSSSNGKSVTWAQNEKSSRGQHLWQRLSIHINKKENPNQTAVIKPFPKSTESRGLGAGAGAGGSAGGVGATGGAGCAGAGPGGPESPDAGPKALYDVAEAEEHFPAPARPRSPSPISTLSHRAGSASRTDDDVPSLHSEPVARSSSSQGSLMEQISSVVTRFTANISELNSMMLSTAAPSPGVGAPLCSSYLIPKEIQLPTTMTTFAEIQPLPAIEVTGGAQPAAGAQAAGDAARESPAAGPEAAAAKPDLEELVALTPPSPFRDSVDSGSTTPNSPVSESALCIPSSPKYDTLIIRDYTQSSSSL

IC50 [1] | IC50 [2] | Structure (SMILES)
> 5 µM | > 5 µM | Cn1cc(O)nc1NC(=O)Nc1cccnc1 [(E)-1-(1-methyl-4-oxoimidazolidin-2-ylidene)-3-(pyridin-3-yl)urea]
> 5 µM | > 5 µM | Cn1cc(O)nc1NC(=O)Nc1ccc(Cl)cc1 [(E)-1-(4-chlorophenyl)-3-(1-methyl-4-oxoimidazolidin-2-ylidene)urea]
